Test results taken from PubChem BioAssay (NCI).
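Test compounds were applied to cells in 96-well plates for 48 hours at 5 doses. Definition used: TGI = concentration required for complete inhibition of growth.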

Tests used:
Experiment in all cases: NCI tumour cell line growth inhibition, 48 h
MCF7 breast = tested on: MCF7 breast
MALME-3M melanoma = tested on: MALME-3M melanoma
MDA-MB-435 = tested on: MDA-MB-435
OVCAR-4 ovarian = tested on: OVCAR-4 ovarian
IGROV1 ovarian = tested on: IGROV1 ovarian
U251 CNS = tested on: U251 CNS
786-0 renal = tested on: 786-0 renal
MOLT-4 leukemia = tested on: MOLT-4 leukemia
M14 melanoma = tested on: M14 melanoma
EKVX NSCLC = tested on: EKVX NSCLC
HCC-2998 colon = tested on: HCC-2998 colon
SNB-75 CNS = tested on: SNB-75 CNS
K-562 leukemia = tested on: K-562 leukemia
OVCAR-8 ovarian = tested on: OVCAR-8 ovarian
OVCAR-5 ovarian = tested on: OVCAR-5 ovarian
DU-145 prostate = tested on: DU-145 prostate
A549 NSCLC = tested on: A549 NSCLC
UO-31 renal = tested on: UO-31 renal
SF-539 CNS = tested on: SF-539 CNS
SK-MEL-5 melanoma = tested on: SK-MEL-5 melanoma
HCT-116 colon = tested on: HCT-116 colon
SK-MEL-2 melanoma = tested on: SK-MEL-2 melanoma
HCT-15 colon = tested on: HCT-15 colon
MDA-MB-231 breast = tested on: MDA-MB-231 breast
SF-295 CNS = tested on: SF-295 CNS
SNB-19 CNS = tested on: SNB-19 CNS
NCI-H23 lung = tested on: NCI-H23 lung
MDA-N = tested on: MDA-N
KM12 colon = tested on: KM12 colon
CCRF-CEM leukemia = tested on: CCRF-CEM leukemia
SK-MEL-28 melanoma = tested on: SK-MEL-28 melanoma
OVCAR-3 ovarian = tested on: OVCAR-3 ovarian
UACC-257 melanoma = tested on: UACC-257 melanoma
HOP-92 NSCLC = tested on: HOP-92 NSCLC
HT29 colon = tested on: HT29 colon
TK-10 renal = tested on: TK-10 renal
T-47D breast = tested on: T-47D breast
NCI-H226 lung = tested on: NCI-H226 lung
SN12C renal = tested on: SN12C renal
CAKI-1 renal = tested on: CAKI-1 renal
ACHN renal = tested on: ACHN renal
HOP-62 NSCLC = tested on: HOP-62 NSCLC
COLO 205 colon = tested on: COLO 205 colon
UACC-62 melanoma = tested on: UACC-62 melanoma
LOX IMVI melanoma = tested on: LOX IMVI melanoma
SK-OV-3 ovarian = tested on: SK-OV-3 ovarian
PC-3 prostate = tested on: PC-3 prostate
NCI-H522 lung = tested on: NCI-H522 lung
NCI/ADR-RES ovarian = tested on: NCI/ADR-RES ovarian
RXF 393 renal = tested on: RXF 393 renal
RPMI-8226 leukemia = tested on: RPMI-8226 leukemia
A498 renal = tested on: A498 renal
HS 578T breast = tested on: HS 578T breast
NCI-H460 lung = tested on: NCI-H460 lung
SW-620 colon = tested on: SW-620 colon
BT-549 breast = tested on: BT-549 breast
HL-60(TB) leukemia = tested on: HL-60(TB) leukemia
SF-268 CNS = tested on: SF-268 CNS

Cc1cc(NS(=O)(=O)c2ccc(N=Nc3c(Nc4ccccc4)nn(-c4ccc(S(=O)(=O)Nc5ccncn5)cc4)c3C)cc2)no1
TGI (MCF7 breast): > 100 µM
TGI (MALME-3M melanoma): > 100 µM
TGI (MDA-MB-435): > 100 µM
TGI (OVCAR-4 ovarian): > 100 µM
TGI (IGROV1 ovarian): > 100 µM
TGI (U251 CNS): > 100 µM
TGI (786-0 renal): > 100 µM
TGI (MOLT-4 leukemia): > 100 µM
TGI (M14 melanoma): > 100 µM
TGI (EKVX NSCLC): > 100 µM
TGI (HCC-2998 colon): > 100 µM
TGI (SNB-75 CNS): > 100 µM
TGI (K-562 leukemia): > 100 µM
TGI (OVCAR-8 ovarian): > 100 µM
TGI (OVCAR-5 ovarian): > 100 µM
TGI (DU-145 prostate): > 100 µM
TGI (A549 NSCLC): > 100 µM
TGI (UO-31 renal): > 100 µM
TGI (SF-539 CNS): > 100 µM
TGI (SK-MEL-5 melanoma): > 100 µM
TGI (HCT-116 colon): > 100 µM
TGI (SK-MEL-2 melanoma): > 100 µM
TGI (HCT-15 colon): > 100 µM
TGI (MDA-MB-231 breast): > 100 µM
TGI (SF-295 CNS): > 100 µM
TGI (SNB-19 CNS): > 100 µM
TGI (NCI-H23 lung): > 100 µM
TGI (MDA-N): > 100 µM
TGI (KM12 colon): > 100 µM
TGI (CCRF-CEM leukemia): > 100 µM
TGI (SK-MEL-28 melanoma): > 100 µM
TGI (OVCAR-3 ovarian): > 100 µM
TGI (UACC-257 melanoma): > 100 µM
TGI (HOP-92 NSCLC): > 100 µM
TGI (HT29 colon): > 100 µM
TGI (TK-10 renal): > 100 µM
TGI (T-47D breast): > 100 µM
TGI (NCI-H226 lung): > 100 µM
TGI (SN12C renal): > 100 µM
TGI (CAKI-1 renal): > 100 µM
TGI (ACHN renal): > 100 µM
TGI (HOP-62 NSCLC): > 100 µM
TGI (COLO 205 colon): > 100 µM
TGI (UACC-62 melanoma): > 100 µM
TGI (LOX IMVI melanoma): > 100 µM
TGI (SK-OV-3 ovarian): > 100 µM
TGI (PC-3 prostate): > 100 µM
TGI (NCI-H522 lung): > 100 µM
TGI (NCI/ADR-RES ovarian): > 100 µM

COc1ccc(/C=C/c2cnnc3ccccc23)cc1OC
TGI (MCF7 breast): > 10 µM
TGI (MALME-3M melanoma): > 10 µM
TGI (RXF 393 renal): > 10 µM
TGI (MDA-MB-435): > 10 µM
TGI (OVCAR-4 ovarian): > 10 µM
TGI (IGROV1 ovarian): > 10 µM
TGI (U251 CNS): > 10 µM
TGI (786-0 renal): > 10 µM
TGI (RPMI-8226 leukemia): > 10 µM
TGI (MOLT-4 leukemia): > 10 µM
TGI (M14 melanoma): > 10 µM
TGI (EKVX NSCLC): > 10 µM
TGI (HCC-2998 colon): > 10 µM
TGI (A498 renal): > 10 µM
TGI (SNB-75 CNS): > 10 µM
TGI (K-562 leukemia): > 10 µM
TGI (OVCAR-8 ovarian): > 10 µM
TGI (HS 578T breast): > 10 µM
TGI (OVCAR-5 ovarian): > 10 µM
TGI (DU-145 prostate): > 10 µM
TGI (A549 NSCLC): > 10 µM
TGI (SF-539 CNS): > 10 µM
TGI (SK-MEL-5 melanoma): > 10 µM
TGI (HCT-116 colon): > 10 µM
TGI (NCI-H460 lung): > 10 µM
TGI (SK-MEL-2 melanoma): > 10 µM
TGI (HCT-15 colon): > 10 µM
TGI (MDA-MB-231 breast): > 10 µM
TGI (SF-295 CNS): > 10 µM
TGI (SW-620 colon): > 10 µM
TGI (SNB-19 CNS): > 10 µM
TGI (NCI-H23 lung): > 10 µM
TGI (MDA-N): > 10 µM
TGI (KM12 colon): > 10 µM
TGI (CCRF-CEM leukemia): > 10 µM
TGI (SK-MEL-28 melanoma): > 10 µM
TGI (OVCAR-3 ovarian): > 10 µM
TGI (UACC-257 melanoma): > 10 µM
TGI (HOP-92 NSCLC): > 10 µM
TGI (BT-549 breast): > 10 µM
TGI (HT29 colon): > 10 µM
TGI (TK-10 renal): > 10 µM
TGI (T-47D breast): > 10 µM
TGI (NCI-H226 lung): > 10 µM
TGI (SN12C renal): > 10 µM
TGI (CAKI-1 renal): > 10 µM
TGI (HL-60(TB) leukemia): > 10 µM
TGI (SF-268 CNS): > 10 µM
TGI (ACHN renal): > 10 µM
TGI (HOP-62 NSCLC): > 10 µM
TGI (COLO 205 colon): > 10 µM
TGI (UACC-62 melanoma): > 10 µM
TGI (LOX IMVI melanoma): > 10 µM
TGI (SK-OV-3 ovarian): > 10 µM
TGI (PC-3 prostate): > 10 µM
TGI (NCI-H522 lung): > 10 µM
TGI (NCI/ADR-RES ovarian): > 10 µM
